Experimental data from patent US20130338130A1 (priority 2009, published 2013).
Read-outs that look alike come from different tables or passages of the source.

Columns and labels:
[1] = tested on: ATCC strain 43300 Staphylococcus aureus; conditions: 24 hours; for average log reduction in cfu/ml: MSM (% in label) with antibiotic (12, 30, 60 μg/ml oxacillin or methicillin)
Description: (§1) All concentrations were plated out to the 10^−7 dilutions to ascertain cfu/ml.
ATCC strain 43300 Staphylococcus aureus was streaked out for isolations and 25 clones were picked and diluted to a McFarland standard of one. The estimated value was then taken to inoculate tubes containing growth media and 12, 30 or 60 μg/ml methicillin or oxacillin with around 10^−7 cfu/tube.
Material was calculated on a 10 ml volume. Sterile oxacillin or methicillin was added to each experimental condition to a final concentration of 12, 30 or 60 μg/ml antibiotic.
All tubes were then inoculated with a dilution of the selected ATCC strain 43300 Staphylococcus aureus clone giving a final level of colony forming units of 9.4×10^7/ml (log=7.97). The tubes were incubated at 25° C. and mixed periodically. […] Plating was done at 24 hours. Each condition was plated by diluting 1 ml of growth material into 9 ml of MLB diluent broth. This mixture was serial diluted down to 10^−7, and 1 ml placed in a sterile petri dish at each dilution point. 20 mls of TSA was added to each dilution, swirled and allowed to solidify. All dilutions were placed in a 35° C. incubator for 24 hours. Bacterial colonies on each plate were counted and colony counts changed into log format. A positive and negative control was ascertained.

[2] = tested on: ATCC strain 43300 Staphylococcus aureus; experiment: MRSA survival in MSM and oxacillin, simulated course of treatment (Example 3); conditions: for survival (Log cfu/ml): 6 μg/ml oxacillin added daily + MSM (% in label)
Description: After 24 hours, another 6 μg/ml oxacillin was added to the incubations, bringing the total amount of oxacillin added to 12 μg/ml. […] This experimental paradigm simulates the repeated application of antibiotic that a subject would receive over a course of treatment.
USP<51> Antimicrobial Effectiveness protocol was used as the template experimental paradigm. […] All concentrations were plated out to the 10^−7 dilutions to ascertain cfu/ml. […] This concentration is the industry standard for determining MRSA resistance in clinical applications. An additional 6 μg/ml oxacillin was added daily.
Material was calculated on a 10 ml volume. Sterile oxacillin was added to each experimental condition daily at 300 μl from a 30 mg/10 ml concentration giving it a final concentration of 6 μg/ml.
All tubes were inoculated at a dilution of MRSA giving a final concentration of colony forming units of 9.14×10^5/ml (Log=5.96). The tubes were incubated at 25° C. and mixed periodically. Plating was done at 48 hours and 7 days. […] These were serial diluted down to 10^−7 with 1 ml placed in a sterile petri dish at each dilution point. 20 mls of TSA was added to each dilution and swirled and allowed to solidify. All dilutions were placed in a 35° C. incubator for 24 hours. Plates were counted and colony counts changed into log format. A positive and negative control was ascertained.

[3] = tested on: ATCC strain 43300 Staphylococcus aureus; experiment: MRSA survival in MSM, DMSO and oxacillin, 48 hours (Example 2); conditions: MA condition (6 μg/ml oxacillin + MSM)
Description: as §1
Material was calculated on a 10 ml volume. […] Sterile DMSO was added to appropriate tubes. Sterile oxacillin was added to appropriate tubes at 300 microliters from a 30 mg/10 ml concentration giving it a final concentration of 6 μg/ml. Control conditions were Lactose Broth inoculated with ATCC strain 43300 Staphylococcus aureus with and without 6 μg/ml oxacillin, as well as uninoculated negative controls to show no signs of contamination.
Appropriate tubes were inoculated at a dilution of ATCC strain 43300 Staphylococcus aureus giving a final concentration of colony forming units of 3.15×10^7/ml (Log=7.49). The tubes were incubated at 25° C. and mixed periodically. Plating was done at 48 hours. […] They were serial diluted down to 10^−7 with 1 ml placed in a sterile petri dish at each dilution point. Then 20 mls of TSA was added to each dilution and swirled and allowed to solidify. All dilutions were placed in a 35° C. incubator for 24 hours. Plates were counted and colony counts changed into log format. A positive and negative control was ascertained.

CS(C)(=O)=O [MSM, Methylsulfonylmethane]
survival (Log cfu/ml) ([1]; 12 μg/ml methicillin + MSM (% in label), inoculum log=7.97, listed as 5% MSM): 5.43 Log cfu/ml
survival (Log cfu/ml) ([1]; 12 μg/ml methicillin + MSM (% in label), inoculum log=7.97, listed as 6% MSM): 5.2 Log cfu/ml
survival (Log cfu/ml) ([1]; 12 μg/ml methicillin + MSM (% in label), inoculum log=7.97, listed as 7% MSM): 5.46 Log cfu/ml
survival (Log cfu/ml) ([1]; 12 μg/ml methicillin + MSM (% in label), inoculum log=7.97, listed as 8% MSM): 5.0 Log cfu/ml
survival (Log cfu/ml) ([1]; 12 μg/ml methicillin + MSM (% in label), inoculum log=7.97, listed as 9% MSM): 4.99 Log cfu/ml
survival (Log cfu/ml) ([1]; 12 μg/ml methicillin + MSM (% in label), inoculum log=7.97, listed as 10% MSM): 4.8 Log cfu/ml
survival (Log cfu/ml) ([1]; 12 μg/ml methicillin + MSM (% in label), inoculum log=7.97, listed as 11% MSM): 4.87 Log cfu/ml
survival (Log cfu/ml) ([1]; 12 μg/ml methicillin + MSM (% in label), inoculum log=7.97, listed as 12% MSM): 4.89 Log cfu/ml
survival (Log cfu/ml) ([1]; 12 μg/ml methicillin + MSM (% in label), inoculum log=7.97, listed as 13% MSM): 4.77 Log cfu/ml
survival (Log cfu/ml) ([1]; 12 μg/ml methicillin + MSM (% in label), inoculum log=7.97, listed as 14% MSM): 4.7 Log cfu/ml
survival (Log cfu/ml) ([1]; 12 μg/ml oxacillin + MSM (% in label), listed as 5% MSM): 5.28 Log cfu/ml
survival (Log cfu/ml) ([1]; 12 μg/ml oxacillin + MSM (% in label), listed as 6% MSM): 5.26 Log cfu/ml
survival (Log cfu/ml) ([1]; 12 μg/ml oxacillin + MSM (% in label), listed as 7% MSM): 5.18 Log cfu/ml
survival (Log cfu/ml) ([1]; 12 μg/ml oxacillin + MSM (% in label), listed as 8% MSM): 5.18 Log cfu/ml
survival (Log cfu/ml) ([1]; 12 μg/ml oxacillin + MSM (% in label), listed as 9% MSM): 5.16 Log cfu/ml
survival (Log cfu/ml) ([1]; 12 μg/ml oxacillin + MSM (% in label), listed as 10% MSM): 4.96 Log cfu/ml
survival (Log cfu/ml) ([1]; 12 μg/ml oxacillin + MSM (% in label), listed as 11% MSM): 4.8 Log cfu/ml
survival (Log cfu/ml) ([1]; 12 μg/ml oxacillin + MSM (% in label), listed as 12% MSM): 4.8 Log cfu/ml
survival (Log cfu/ml) ([1]; 12 μg/ml oxacillin + MSM (% in label), listed as 13% MSM): 4.9 Log cfu/ml
survival (Log cfu/ml) ([1]; 12 μg/ml oxacillin + MSM (% in label), listed as 14% MSM): 4.88 Log cfu/ml
survival (Log cfu/ml) ([1]; 30 μg/ml methicillin + MSM (% in label), listed as 9% MSM): 5.07 Log cfu/ml
survival (Log cfu/ml) ([1]; 30 μg/ml methicillin + MSM (% in label), listed as 10% MSM): 4.8 Log cfu/ml
survival (Log cfu/ml) ([1]; 30 μg/ml methicillin + MSM (% in label), listed as 11% MSM): 4.8 Log cfu/ml
survival (Log cfu/ml) ([1]; 30 μg/ml methicillin + MSM (% in label), listed as 12% MSM): 4.7 Log cfu/ml
survival (Log cfu/ml) ([1]; 30 μg/ml methicillin + MSM (% in label), listed as 13% MSM): 4.7 Log cfu/ml
survival (Log cfu/ml) ([1]; 30 μg/ml methicillin + MSM (% in label), listed as 14% MSM): 4.6 Log cfu/ml
survival (Log cfu/ml) ([1]; 30 μg/ml methicillin + MSM (% in label), listed as 15% MSM): 4.54 Log cfu/ml
survival (Log cfu/ml) ([1]; 30 μg/ml methicillin + MSM (% in label), listed as 16% MSM): 4.47 Log cfu/ml
survival (Log cfu/ml) ([1]; 30 μg/ml oxacillin + MSM (% in label), listed as 9% MSM): 5.02 Log cfu/ml
survival (Log cfu/ml) ([1]; 30 μg/ml oxacillin + MSM (% in label), listed as 10% MSM): 4.99 Log cfu/ml
survival (Log cfu/ml) ([1]; 30 μg/ml oxacillin + MSM (% in label), listed as 11% MSM): 4.94 Log cfu/ml
survival (Log cfu/ml) ([1]; 30 μg/ml oxacillin + MSM (% in label), listed as 12% MSM): 4.87 Log cfu/ml
survival (Log cfu/ml) ([1]; 30 μg/ml oxacillin + MSM (% in label), listed as 13% MSM): 4.9 Log cfu/ml
survival (Log cfu/ml) ([1]; 30 μg/ml oxacillin + MSM (% in label), listed as 14% MSM): 4.82 Log cfu/ml
survival (Log cfu/ml) ([1]; 30 μg/ml oxacillin + MSM (% in label), listed as 15% MSM): 4.74 Log cfu/ml
survival (Log cfu/ml) ([1]; 30 μg/ml oxacillin + MSM (% in label), listed as 16% MSM): 4.59 Log cfu/ml
average log reduction in cfu/ml ([1]; listed as 5% MSM): 2.2 log
average log reduction in cfu/ml ([1]; listed as 16% MSM): 3.3 log
colony numbers ([1]; MSM without antibiotic control condition): greater colony numbers than what was initially inoculated
survival (Log cfu/ml) ([2]; 48 hours, inoculum Log=5.96, listed as 5% MSM): 7.0 Log cfu/ml
survival (Log cfu/ml) ([2]; 48 hours, inoculum Log=5.96, listed as 8% MSM): 4.0 Log cfu/ml
survival (Log cfu/ml) ([2]; 48 hours, inoculum Log=5.96, listed as 10% MSM): 4.6 Log cfu/ml
survival (Log cfu/ml) ([2]; 48 hours, inoculum Log=5.96, listed as 12% MSM): 3.8 Log cfu/ml
survival (Log cfu/ml) ([2]; 48 hours, inoculum Log=5.96, listed as 13% MSM): 3.8 Log cfu/ml
survival (Log cfu/ml) ([2]; 48 hours, inoculum Log=5.96, listed as 14% MSM): 4.0 Log cfu/ml
survival (Log cfu/ml) ([2]; 48 hours, inoculum Log=5.96, listed as 15% MSM): 4.1 Log cfu/ml
survival (Log cfu/ml) ([2]; 48 hours, inoculum Log=5.96, listed as 16% MSM): 5.3 Log cfu/ml
survival (Log cfu/ml) ([2]; 7 days, listed as 5% MSM): 7.9 Log cfu/ml
survival (Log cfu/ml) ([2]; 7 days, listed as 8% MSM): 7.6 Log cfu/ml
survival (Log cfu/ml) ([2]; 7 days, listed as 10% MSM): 7.2 Log cfu/ml
survival (Log cfu/ml) ([2]; 7 days, listed as 12% MSM): 7.1 Log cfu/ml
survival (Log cfu/ml) ([2]; 7 days, listed as 13% MSM): 7.2 Log cfu/ml
survival (Log cfu/ml) ([2]; 7 days, listed as 14% MSM): 7.0 Log cfu/ml
survival (Log cfu/ml) ([2]; 7 days, listed as 15% MSM): 6.9 Log cfu/ml
survival (Log cfu/ml) ([2]; 7 days, listed as 16% MSM): 1.0 Log cfu/ml
surviving bacteria ([2]; 6 μg/ml oxacillin added each day, day 7): no surviving bacteria
log reduction in cfu/ml [3]: 2.0 log
